22 compounds from patent US8993612B2, “Modulators of calcium release-activated calcium channel and methods for treatment of non-small cell lung cancer” (Rhizen Pharmaceuticals SA, priority 2009, dated 2015) can be followed below.

This experiment deals with CRAC channels (Homo sapiens (Human), UniProt Q96D31). The experiment can be described thus: In-vitro CRAC channel inhibition assay in Jurkat cells (thapsigargin-induced calcium influx). The format is cell-based. How it is done:
Inhibition of CRAC channels was determined following thapsigargin (Sigma, Cat # T9033) induced endoplasmic calcium release in Jurkat cells. (see Yasurio Yonetoky et. al Bio. & Med. Chem. 14 (2006) 4750-4760). Cells were centrifuged and resuspended in equal volumes ° f Ca^2+ and Mg^2+ free Hanks buffer and Fluo-8 NW dye (ABD Bioquest, Inc., Sunnyvale, Calif.) loading solution at 2×10^5 cells/100 μl/well in 96-well black plate. Plate is incubated at 37° C./5% CO2 for 30 mM followed by further 15 mM incubation at room temperature. Test compounds (DMSO stocks diluted in Ca^2+ and Mg^2+ free Hanks buffer) at desired concentrations were added to the wells and incubated for […]. Thapsigargin (1 μM final concentration) was added to the wells and incubated for 15 min to inhibit the Sarco-endoplasmic reticulum Ca^2+ ATPase pump thereby depleting endoplasmic calcium and raising cytosolic calcium concentrations. Store-operated calcium entry was initiated by adding extracellular Ca^2+ to a final concentration of 1.8 mM. Fluorescence was monitored over […] on a plate reader (BMG Labtech., Germany) with excitation at 485 nm and an emission wavelength at 520 nm. Data were analyzed using GraphPad Prism. IC50 for each compound was determined based on the percent inhibition of thapsigargin-induced calcium influx into cells.

Where a name gives a salt, the structure may show the parent alone.

Sequence of CRAC channels (Q96D31 whole entry): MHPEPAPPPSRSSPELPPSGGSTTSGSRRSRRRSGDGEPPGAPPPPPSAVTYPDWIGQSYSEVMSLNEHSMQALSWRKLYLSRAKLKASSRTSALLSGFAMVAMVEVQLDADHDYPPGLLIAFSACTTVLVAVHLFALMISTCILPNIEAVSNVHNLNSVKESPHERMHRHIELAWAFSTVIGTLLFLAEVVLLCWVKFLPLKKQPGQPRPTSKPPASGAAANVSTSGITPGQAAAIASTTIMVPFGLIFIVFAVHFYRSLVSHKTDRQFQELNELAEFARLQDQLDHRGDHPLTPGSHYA

With `O=C(Nc1ccc(-n2nc(C3CC3)cc2C2CC2)cc1)Nc1ccc2ncccc2c1` [Example 37, 1-[4-(3,5-dicyclopropyl-1H-pyrazol-1-yl)phenyl]-3-(quinolin-6-yl)urea], the inhibition (as a rule, how much of the control response was suppressed) at 1 µM (1 uM) came to 57.3%.

On to `O=C(Cn1nnc2cccnc21)Nc1ccc(-n2nc(C(F)(F)F)cc2C2CC2)cc1` [Example 22, 2-(3H-[1,2,3]triazolo[4,5-b]pyridin-3-yl)-N-{4-[5-cyclopropyl-3-(trifluoromethyl)-1H-pyrazol-1-yl]phenyl}acetamide], for which the inhibition at 1 µM (1 uM) came to 30.9%.

With `Cl.Cl.O=C(Cc1ccc2ncccc2c1)Nc1ccc(-n2nc(C3CC3)cc2C2CC2)nc1` [Example 16, N-[6-(3,5-dicyclopropyl-1H-pyrazol-1-yl)pyridin-3-yl]-2-(quinolin-6-yl)acetamidedihydrochloride], the “% inhibition (1 uM)” value (1 uM) came to 30.81%.

For the compound `Cn1c(=O)c2c(ncn2CC(=O)Nc2ccc(-n3nc(C(F)(F)F)cc3C3CC3)cc2)n(C)c1=O` [Example 25, N-(4-(5-cyclopropyl-3-(trifluoromethyl)-1H-pyrazol-1-yl)phenyl)-2-(1,3-dimethyl-2,6-dioxo-2,3-dihydro-1H-purin-7(6H)-yl)acetamide], under “1 uM”, the inhibition at 1 µM was found to be 39.1%.

In the case of `O=C(Nc1ccc(-n2nc(C(F)(F)F)cc2C2CC2)nc1)c1ccc2[nH]nnc2c1` [Example 31, N-{6-[5-cyclopropyl-3-(trifluoromethyl)-1H-pyrazol-1-yl]pyridin-3-yl}-1H-benzo[d][1,2,3]triazole-5-carboxamide], the inhibition at 1 µM (1 uM) is 50.6%.

With `O=C(Cn1nnc2ccccc21)Nc1ccc(-n2nc(C3CC3)cc2C2CC2)nc1` [Example 15, 2-(1H-benzo[d][1,2,3]triazol-1-yl)-N-[6-(3,5-dicyclopropyl-1H-pyrazol-1-yl)pyridin-3-yl]acetamide], the inhibition at 1 µM (1 uM) came to 3.93%.

For the compound `O=C(Cn1nnc2ccccc21)Nc1ccc(-n2nc(C3CC3)cc2C2CC2)c(F)c1` [Example 11, 2-(1H-benzo[d][1,2,3]triazol-1-yl)-N-(4-(3,5-dicyclopropyl-1H-pyrazol-1-yl)-3-fluorophenyl)acetamide], where the note is “1 uM”, the inhibition at 1 µM is 78.6%.

Consider `CC(C(=O)Nc1ccc(-n2nc(C(F)(F)F)cc2C2CC2)cc1)c1ccc2ncccc2c1` (stereo not shown) [Example 28, N-{4-[5-cyclopropyl-3-(trifluoromethyl)-1H-pyrazol-1-yl]phenyl}-2-(quinolin-6-yl)propanamide Hydrochloride], for which, where the note is “1 uM”, the inhibition at 1 µM was 0%.

As for `O=C(NCc1ccc2ncccc2c1)c1ccc(-n2nc(C(F)(F)F)cc2C2CC2)c(F)c1` [Example 36, 4-[5-cyclopropyl-3-(trifluoromethyl)-1H-pyrazol-1-yl]-3-fluoro-N-(quinolin-6-ylmethyl)benzamide hydrochloride], where the note is “1 uM”, the inhibition at 1 µM was found to be 51%.

`O=C(Cn1nc2ccccc2n1)Nc1ccc(-n2nc(C(F)(F)F)cc2C2CC2)nc1` [Example 33, 2-(2H-benzo[d][1,2,3]triazol-2-yl)-N-{6-[5-cyclopropyl-3-(trifluoromethyl)-1H-pyrazol-1-yl]pyridin-3-yl}acetamide]: the inhibition at 1 µM (1 uM) came to 49.5%.

Consider `O=C(Cn1nnc2ccccc21)Nc1ccc(-n2nc(C(F)(F)F)c(Cl)c2C2CC2)nc1` [Example 35, 2-(1H-benzo[d][1,2,3]triazol-1-yl)-N-{6-[4-chloro-5-cyclopropyl-3-(trifluoromethyl)-1H-pyrazol-1-yl]pyridin-3-yl}acetamide], for which the inhibition at 1 µM (1 uM) is 15%.

For `O=C(Nc1ccc(-n2nc(C(F)(F)F)cc2C2CC2)cc1)c1ccc2nccnc2c1` [Example 18, N-{4-[5-cyclopropyl-3-(trifluoromethyl)-1H-pyrazol-1-yl]phenyl}quinoxaline-6-carboxamide], the concentration for half-maximal inhibition (IC50) (as a rule, the concentration at which inhibition is half-maximal) amounted to 53.4 nM. Also, the inhibition at 1 µM (1 uM) stood at 96.6%.

On to `O=C(Cn1nnc2ccccc21)Nc1ccc(-n2nc(C(F)(F)F)cc2C2CC2)c(F)c1` [Example 30, 2-(1H-benzo[d][1,2,3]triazol-1-yl)-N-{4-[5-cyclopropyl-3-(trifluoromethyl)-1H-pyrazol-1-yl]-3-fluorophenyl}acetamide], for which the IC50 is 160 nM. Also, the inhibition at 1 µM (1 uM) worked out at 100%.

Take `O=C(Nc1ccc(-n2nc(C3CC3)cc2C2CC2)cc1)c1ccc2nc[nH]c2c1` [Example 1, N-[4-(3,5-dicyclopropyl-1H-pyrazol-1-yl)phenyl]-1H-benzo[d]imidazole-6-carboxamide]: the inhibition at 1 µM (1 uM) stood at 57.6%.

With `O=C(Nc1ccc(-n2nc(C3CC3)cc2C2CC2)nc1)c1ccc2ncccc2c1` [Example 13, N-[6-(3,5-dicyclopropyl-1H-pyrazol-1-yl)pyridin-3-yl]quinoline-6-carboxamide Dihydrochloride], under “1 uM”, the inhibition at 1 µM came out at 22.4%.

For the compound `C[C@@H](C(=O)Nc1ccc(-n2nc(C(F)(F)F)cc2C2CC2)cc1)n1nnc2cccnc21` [Example 23, (S)-2-(3H-[1,2,3]triazolo[4,5-b]pyridin-3-yl)-N-{4-[5-cyclopropyl-3-(trifluoromethyl)-1H-pyrazol-1-yl]phenyl}propanamide], the inhibition at 1 µM (1 uM) worked out at 69.9%.

As for `O=C(Cn1nnc2ccccc21)Nc1ccc(-n2nc(C(F)(F)F)cc2C2CC2)nc1` [Example 32, 2-(1H-benzo[d][1,2,3]triazol-1-yl)-N-{6-[5-cyclopropyl-3-(trifluoromethyl)-1H-pyrazol-1-yl]pyridin-3-yl}acetamide], the inhibition at 1 µM (1 uM) is 41.2%.

As to `O=C(Cc1cn2ccccc2n1)Nc1ccc(-n2nc(C(F)(F)F)cc2C2CC2)cc1` [Example 26, N-{4-[5-cyclopropyl-3-(trifluoromethyl)-1H-pyrazol-1-yl)phenyl)-2-(imidazo[1,2-a]pyridin-2-yl)acetamide Hydrochloride], for the setting “1 uM”, the inhibition at 1 µM stood at 30.9%.

For `O=C(Cc1cn2ccccc2n1)Nc1ccc(-n2nc(C3CC3)cc2C2CC2)cc1` [Example 8, N-[4-(3,5-dicyclopropyl-1H-pyrazol-1-yl)phenyl]-2-(imidazo[1,2-a]pyridin-2-yl)acetamide Hydrochloride], the inhibition at 1 µM (1 uM) stood at 17.9%.

Take `O=C(Nc1ccc(-n2nc(C3CC3)cc2C2CC2)nc1)c1ccc2nccnc2c1` [Example 14, N-[6-(3,5-dicyclopropyl-1H-pyrazol-1-yl)pyridin-3-yl]quinoxaline-6-carboxamide]: the inhibition at 1 µM (1 uM) was found to be 17.8%.

Consider `O=C(Cn1nc2ccccc2n1)Nc1ccc(-n2nc(C(F)(F)F)cc2C2CC2)cc1` [Example 21, 2-(2H-benzo[d][1,2,3]triazol-2-yl)-N-{4-[5-cyclopropyl-3-(trifluoromethyl)-1H-pyrazol-1-yl]phenyl}acetamide], for which the IC50 amounted to 139 nM. Moreover, under “1 uM”, the inhibition at 1 µM came out at 83%.

For `O=C(Cc1c[nH]c2ccccc12)Nc1ccc(-n2nc(C3CC3)cc2C2CC2)cc1` [Example 7, N-[4-(3,5-dicyclopropyl-1H-pyrazol-1-yl)phenyl]-2-(1H-indol-3-yl)acetamide], under “1 uM”, the inhibition at 1 µM was determined as 36.8%.
